Data from patent publication US4345938A, “Herbicidal 2-haloacetanilides” (Monsanto Company, priority 1980, dated 1982).
Like-named read-outs stand apart in the source and are kept apart here.

How the values were obtained:
Format in all cases: in vivo
[1] = system: Rice; assay: Field transplant rice test, applied 0 DAT, rice injury; conditions: for inhibition at 375 g/ha / inhibition at 750 g/ha / inhibition at 1500 g/ha / inhibition at 3000 g/ha: Oryza sativa, 0 h, read-out: Percent Inhibition, Rice; for inhibition at 375 g/ha: 0.375 Kg/Ha; for inhibition at 750 g/ha: 0.75 Kg/Ha; for inhibition at 1500 g/ha: 1.5 Kg/Ha; for inhibition at 3000 g/ha: 3.0 Kg/Ha
Procedure: (§1) In further comparative tests, a preferred compound of this invention (Example 1) was tested in the field with prior art Compounds A-D. These tests were conducted under conditions reflecting herbicide application times generally favorable to all herbicides in the test. The timing of application of herbicides to transplant rice is very important, whether, as in some instances, prior to transplanting the rice; in other instances, at the time of transplanting or else after transplanting. Application times are conventionally referred to as "days before transplant" (DBT) or "days after transplant" ("DAT"). The field test data in Table IV was obtained from a test in which the herbicides were applied at the time of transplant, i.e., "0 DAT", with observations being made weekly up to six weeks after transplant ("WAT") beginning at two weeks after transplant; for illustrative and representative purposes, only the early, middle and late period observations, i.e., 2 WAT, 4 WAT and 6 WAT, are shown in Table IV. The data in Table IV is for rates of application common to all herbicides in the test, i.e., from 3.0 kg/ha (2.67 lb/A) down to 0.375 kg/ha (0.34 lb/A). All herbicides were applied at their actual or expected use rates, i.e., as granules containing 2.5% by weight herbicide for the compound of Example 1, Compounds B, C and D and 5.0% by weight for Compound A.

[2] = system: Cyperus serotinus; assay: Field transplant rice test, applied 0 DAT, CS; conditions: 0 h, read-out: Percent Inhibition, CS; for inhibition at 375 g/ha: 0.375 Kg/Ha; for inhibition at 750 g/ha: 0.75 Kg/Ha; for inhibition at 1500 g/ha: 1.5 Kg/Ha; for inhibition at 3000 g/ha: 3.0 Kg/Ha
Procedure: (§2) The test data in Table III for all compounds was obtained under identical test conditions. The weeds used in the tests herein have the following abbreviations in the tables: Echinochloa crus-galli (EC), Monochloria vaginalis (MV), Cyperus Serotinus (CS), Eleocharis Kuroguwai (EK) and Sagittaria trifolia (ST).
as §1

[3] = system: Monochoria vaginalis; assay: Field transplant rice test, applied 0 DAT, MV; conditions: Pontederia vaginalis, 0 h, read-out: Percent Inhibition, MV; for inhibition at 375 g/ha: 0.375 Kg/Ha; for inhibition at 750 g/ha: 0.75 Kg/Ha; for inhibition at 1500 g/ha: 1.5 Kg/Ha; for inhibition at 3000 g/ha: 3.0 Kg/Ha
Procedure: as §2, §1

[4] = system: Eleocharis kuroguwai; assay: Field transplant rice test, applied 9 DAT, EK; conditions: for inhibition at 375 g/ha / inhibition at 750 g/ha / inhibition at 1500 g/ha / inhibition at 3000 g/ha: Eleocharis kuroguwai, 216 h, read-out: Percent Inhibition, EK; for inhibition at 375 g/ha: 0.375 Kg/Ha; for inhibition at 750 g/ha: 0.75 Kg/Ha; for inhibition at 1500 g/ha: 1.5 Kg/Ha; for inhibition at 3000 g/ha: 3.0 Kg/Ha
Text: (§3) In the discussion of data below, occasional reference is made to herbicide application rates symbolized as "GR15 " and "GR85 "; these rates are given in kilograms per hectare (kg/ha) which are convertible into pounds per acre (lbs/A) by dividing the kg/ha rate by 1.12.
(§4) A further guide to the effectiveness of a chemical as a selective herbicide is the "selectivity factor" ("SF") for a herbicide in given crops and weeds. The selectivity factor is a measure of the relative degree of crop safety and weed injury and is expressed in terms of the GR15 /GR85 ratio, i.e., the GR15 rate for the crop divided by the GR85 rate for the weed, both rates in kg/ha (lb/A.)
as §2, §1
(§5) In Table V are presented field data showing the relative performance of the compound of Example 1 and Compounds A-D applied 9 DAT, with observations being made weekly from 3 WAT to 7 WAT; again, for illustrative and representative purposes, only the early, middle and late period observations are reported in Table V, the herbicide rates and concentrations of active ingredients the same as is shown in Table IV.

[5] = system: Cyperus serotinus; assay: Field transplant rice test, applied 9 DAT, CS; conditions: for inhibition at 375 g/ha / inhibition at 750 g/ha / inhibition at 1500 g/ha / inhibition at 3000 g/ha: Cyperus serotinus, 216 h, read-out: Percent Inhibition, CS; for inhibition at 375 g/ha: 0.375 Kg/Ha; for inhibition at 750 g/ha: 0.75 Kg/Ha; for inhibition at 1500 g/ha: 1.5 Kg/Ha; for inhibition at 3000 g/ha: 3.0 Kg/Ha
Text: as §3, §4, §2, §1, §5

CCCCOCN(C(=O)CCl)c1c(C)cccc1C(C)(C)C [Compound C, 2'-methyl-6'-tert-butyl-N-(n-butoxymethyl)-2-chloroacetanilide]
injury rate in rice ([1]; 1.5 kg/ha (1.34 lb/A), after 4 WAT): greater than 15% | inhibition at 375 g/ha ([1]; 2 WAT): 3% | inhibition at 375 g/ha ([1]; 4 WAT): 0% | inhibition at 375 g/ha ([1]; 6 WAT): 0% | inhibition at 750 g/ha ([1]; 2 WAT): 2% | inhibition at 750 g/ha ([1]; 4 WAT): 2% | inhibition at 750 g/ha ([1]; 6 WAT): 2% | inhibition at 1500 g/ha ([1]; 2 WAT): 12% | inhibition at 1500 g/ha ([1]; 4 WAT): 18% | inhibition at 1500 g/ha ([1]; 6 WAT): 18% | inhibition at 3000 g/ha ([1]; 2 WAT): 22% | inhibition at 3000 g/ha ([1]; 4 WAT): 27% | inhibition at 3000 g/ha ([1]; 6 WAT): 30% | inhibition at 375 g/ha ([2]; 2 WAT): 93% | inhibition at 375 g/ha ([2]; 4 WAT): 92% | inhibition at 375 g/ha ([2]; 6 WAT): 72% | inhibition at 750 g/ha ([2]; 2 WAT): 70% | inhibition at 750 g/ha ([2]; 4 WAT): 82% | inhibition at 750 g/ha ([2]; 6 WAT): 77% | inhibition at 1500 g/ha ([2]; 2 WAT): 93% | inhibition at 1500 g/ha ([2]; 4 WAT): 99% | inhibition at 1500 g/ha ([2]; 6 WAT): 100% | inhibition at 3000 g/ha ([2]; 2 WAT): 95% | inhibition at 3000 g/ha ([2]; 4 WAT): 100% | inhibition at 3000 g/ha ([2]; 6 WAT): 100% | inhibition at 375 g/ha ([3]; 2 WAT): 100% | inhibition at 375 g/ha ([3]; 4 WAT): 100% | inhibition at 375 g/ha ([3]; 6 WAT): 97% | inhibition at 750 g/ha ([3]; 2 WAT): 100% | inhibition at 750 g/ha ([3]; 4 WAT): 100% | inhibition at 750 g/ha ([3]; 6 WAT): 100% | inhibition at 1500 g/ha ([3]; 2 WAT): 100% | inhibition at 1500 g/ha ([3]; 4 WAT): 100% | inhibition at 1500 g/ha ([3]; 6 WAT): 100% | inhibition at 3000 g/ha ([3]; 2 WAT): 100% | inhibition at 3000 g/ha ([3]; 4 WAT): 100% | inhibition at 3000 g/ha ([3]; 6 WAT): 100% | inhibition at 375 g/ha ([4]; 3 WAT): 52% | inhibition at 375 g/ha ([4]; 5 WAT): 23% | inhibition at 375 g/ha ([4]; 7 WAT): 15% | inhibition at 750 g/ha ([4]; 3 WAT): 75% | inhibition at 750 g/ha ([4]; 5 WAT): 68% | inhibition at 750 g/ha ([4]; 7 WAT): 32% | inhibition at 1500 g/ha ([4]; 3 WAT): 70% | inhibition at 1500 g/ha ([4]; 5 WAT): 77% | inhibition at 1500 g/ha ([4]; 7 WAT): 38% | inhibition at 3000 g/ha ([4]; 3 WAT): 83% | inhibition at 3000 g/ha ([4]; 5 WAT): 93% | inhibition at 3000 g/ha ([4]; 7 WAT): 74% | selectivity factor (GR15/GR85), EK in transplant rice ([4]; at 5 WAT): greater than 1 | inhibition at 375 g/ha ([5]; 3 WAT): 58% | inhibition at 375 g/ha ([5]; 5 WAT): 60% | inhibition at 375 g/ha ([5]; 7 WAT): 43% | inhibition at 750 g/ha ([5]; 3 WAT): 93% | inhibition at 750 g/ha ([5]; 5 WAT): 93% | inhibition at 750 g/ha ([5]; 7 WAT): 82% | inhibition at 1500 g/ha ([5]; 3 WAT): 62% | inhibition at 1500 g/ha ([5]; 5 WAT): 87% | inhibition at 1500 g/ha ([5]; 7 WAT): 83% | inhibition at 3000 g/ha ([5]; 3 WAT): 95% | inhibition at 3000 g/ha ([5]; 5 WAT): 100% | inhibition at 3000 g/ha ([5]; 7 WAT): 100% | selectivity factor (GR15/GR85), CS in transplant rice ([5]; between 3 WAT and 7 WAT): 4
